# Legend:
# [1] = Analysis of the mixed solution (infrared nitrite peak, visible UV spectrum); type: physicochemical
# [2] = system: smooth muscle of the corpora cavernosa of rats; assay: Relaxation/contraction of rat corpus cavernosum tissue samples (force displacement transducer); type: cell-based, Wistar-type rats; conditions: for relaxation of the tissue of the corpora cavernosa: tissue constricted with norepinephrine, scalar solutions 10^-5 M to 10^-3 M
# Excerpt: In particular, this model is used for planning experiments aimed at checking the vasodilatory action of NO on vascular smooth muscle cells, since the methodology presented by the authors allows samples of corpus cavernosum tissue to be obtained from rats, on which studies of response to various exogenous molecules can be conducted, to detect their relaxation/contraction effects on smooth muscle cells.
# The work we selected and the experimental model on which we based our observations can easily be traced in the following work: G. Italiano, A. Calabrò and F. Pagano of the Urology Institute of Padua University, published in Pharmacology Therapeutics (Vol 30 no 4, 1994 pp. 325-334).
# We used 20 adult Wistar-type rats weighing between 175 and 200 g; after having sacrificed the rats we obtained corpus cavernosum tissues as described by the methods and placed these in a Krebs solution (in mM: 118 NaCl, 4,7 KCI, 1,2 KH2PO4, 1,2 MgSO4, 1,5 CaCl2, 25 NaHCO3, 11 glucose).
# A single sample was taken from each rat.
# The excised tissues were then put in 10 mL Krebs solution and held in place by two metal arms to allow assessment of any changes in the forces observed and assessed by the Grass FT03 model (using a force displacement transducer apparatus to assess the muscle tension of tissues, calibrated in mN). The saline solution containing the tissues (Krebs solution) was kept at pH 7.4 ±0.1 and at 37°C, with oxygenation using a mixture of 95% oxygen and 5% carbon dioxide.
# [3] = system: rat model with type 1 diabetes induced by streptozotocin; assay: In-vivo test of sexual function in diabetic rat models; design: species or system male Wistar rats
# Procedure: Next we tested the possible beneficial effects of SNO-pantetheine on sexual function in a rat model with type 1 diabetes induced by streptozotocin, which is typically accompanied by deficit of sexual activity.
# In short, male Wistar rats were assigned to a cage (45 × 50 × 35 cm) covered in glass and lit with red light. Training took place every day after 5 pm for about 30 min, and after 10 minutes of acclimatisation a female rat in an oestrogenic phase was introduced into the cage. We then observed the sexual behaviour of diabetic rats vs. the relevant controls by measuring standard parameters (Burnett et al., 1995).
molecule,measurement,setting,value
O=C(O)CCCCC1CCSS1 (stereo not drawn) [alpha lipoic acid],"results of the reaction compared with pantetheine (nitrite consumption, S-nitroso compound formation)",[1]; alpha lipoic acid used as SH group donor instead of pantetheine,comparable results
"NC[C@H](O)c1ccc(O)c(O)c1 [norepinephrine, reference compound]",constriction,"[2]; scalar solutions 10^-8 M to 10^-3 M, Krebs solution pH 7.4, 37°C",about 1.5 mN
S-nitrosothiol of alpha lipoic acid,relaxation of the tissue of the corpora cavernosa,[2],very similar to that of the S-nitrosothiol of pantetheine
"CC(C)(CO)[C@@H](O)C(=O)NCCC(=O)NCCSN=O [SNO-pantetheine, S-nitrosothiol of pantetheine]",nitrosothiol remains sufficiently stable,"[1]; at room temperature, after mixing of phases A and B",more than 1 hour
same,EL (Ejaculation latency),"[3]; Day 0, topical application",423.2 ± 12.5 s
same,IF (Introduction frequency),"[3]; Day 0, topical application",11.2 ± 0.9 number
same,IL (Introduction latency),"[3]; Day 0, topical application",52.3 ± 3.9 s
same,MF (Mating frequency),"[3]; Day 0, topical application",12.0 ± 1.7 number
same,ML (Mating latency),"[3]; Day 0, topical application",42.5 ± 2.9 s
same,PEI (Post-ejaculatory interval),"[3]; Day 0, topical application",343.3 ± 10.9 s
same,EL (Ejaculation latency),"[3]; Day 30, topical application",375.8 ± 10.8 s
same,IF (Introduction frequency),"[3]; Day 30, topical application",14.5 ± 0.8 number
same,IL (Introduction latency),"[3]; Day 30, topical application",44.7 ± 4.2 s
same,MF (Mating frequency),"[3]; Day 30, topical application",11.2 ± 0.3 number
same,ML (Mating latency),"[3]; Day 30, topical application",34.3 ± 2.5 s
same,PEI (Post-ejaculatory interval),"[3]; Day 30, topical application",386.2 ± 14.3 s
same,relaxation of the tissue of the corpora cavernosa,[2],the effect of the norepinephrine was cancelled out

# From EP3158990A1 (Glano Tech Ltd, priority 2015, dated 2017)
